In the NIST ThermoML archive (doi:10.1016/j.jct.2006.05.008):

Assay: molar heat capacity at constant pressure
Conditions: 101.33 kPa

CCC[n+]1ccn(C)c1.[Br-] [1-methyl-3-propylimidazolium bromide]
Conditions | molar heat capacity at constant pressure [J/K/mol]
244.42 K, Liquid, Small (less than 1 g) adiabatic calorimetry | 265
244.52 K, Crystal, Vacuum adiabatic calorimetry | 198.49
244.94 K, Crystal, Vacuum adiabatic calorimetry | 198.95
245.29 K, Metastable crystal, Small (less than 1 g) adiabatic calorimetry | 199.04
245.35 K, Liquid, Small (less than 1 g) adiabatic calorimetry | 265.6
245.89 K, Crystal, Vacuum adiabatic calorimetry | 199.57
246.52 K, Liquid, Small (less than 1 g) adiabatic calorimetry | 265.56
246.54 K, Liquid, Small (less than 1 g) adiabatic calorimetry | 266.09
247.02 K, Crystal, Vacuum adiabatic calorimetry | 200.86
247.27 K, Crystal, Vacuum adiabatic calorimetry | 200.82
247.37 K, Liquid, Small (less than 1 g) adiabatic calorimetry | 266.15
247.66 K, Metastable crystal, Small (less than 1 g) adiabatic calorimetry | 201.1
248.62 K, Liquid, Small (less than 1 g) adiabatic calorimetry | 266.07
248.65 K, Crystal, Vacuum adiabatic calorimetry | 202.17
248.84 K, Liquid, Small (less than 1 g) adiabatic calorimetry | 267.47
249.1 K, Crystal, Vacuum adiabatic calorimetry | 202.81
249.39 K, Liquid, Small (less than 1 g) adiabatic calorimetry | 266.73
250.02 K, Crystal, Vacuum adiabatic calorimetry | 203.57
250.02 K, Metastable crystal, Small (less than 1 g) adiabatic calorimetry | 203.18
250.73 K, Liquid, Small (less than 1 g) adiabatic calorimetry | 266.58
251.18 K, Crystal, Vacuum adiabatic calorimetry | 204.9
251.4 K, Crystal, Vacuum adiabatic calorimetry | 204.98
251.41 K, Liquid, Small (less than 1 g) adiabatic calorimetry | 267.3
251.54 K, Crystal, Vacuum adiabatic calorimetry | 205.96
252.37 K, Metastable crystal, Small (less than 1 g) adiabatic calorimetry | 205.32
252.77 K, Crystal, Vacuum adiabatic calorimetry | 206.43
252.83 K, Liquid, Small (less than 1 g) adiabatic calorimetry | 267.16
253.26 K, Crystal, Vacuum adiabatic calorimetry | 207.11
253.43 K, Liquid, Small (less than 1 g) adiabatic calorimetry | 267.81
254.71 K, Metastable crystal, Small (less than 1 g) adiabatic calorimetry | 207.8
254.93 K, Liquid, Small (less than 1 g) adiabatic calorimetry | 267.63
255.35 K, Crystal, Vacuum adiabatic calorimetry | 209.48
255.45 K, Liquid, Small (less than 1 g) adiabatic calorimetry | 268.35
257.03 K, Liquid, Small (less than 1 g) adiabatic calorimetry | 268.27
257.05 K, Metastable crystal, Small (less than 1 g) adiabatic calorimetry | 210.12
257.43 K, Crystal, Vacuum adiabatic calorimetry | 211.8
257.47 K, Liquid, Small (less than 1 g) adiabatic calorimetry | 268.84
259.14 K, Liquid, Small (less than 1 g) adiabatic calorimetry | 268.9
259.38 K, Metastable crystal, Small (less than 1 g) adiabatic calorimetry | 212.62
259.49 K, Liquid, Small (less than 1 g) adiabatic calorimetry | 269.39
259.52 K, Crystal, Vacuum adiabatic calorimetry | 214.55
260.55 K, Crystal, Vacuum adiabatic calorimetry | 216.79
261.24 K, Liquid, Small (less than 1 g) adiabatic calorimetry | 269.33
261.52 K, Liquid, Small (less than 1 g) adiabatic calorimetry | 269.97
261.6 K, Crystal, Vacuum adiabatic calorimetry | 217.5
261.65 K, Liquid, Small (less than 1 g) adiabatic calorimetry | 270.17
261.69 K, Metastable crystal, Small (less than 1 g) adiabatic calorimetry | 215.45
263.34 K, Liquid, Small (less than 1 g) adiabatic calorimetry | 269.95
263.54 K, Liquid, Small (less than 1 g) adiabatic calorimetry | 270.5
263.69 K, Crystal, Vacuum adiabatic calorimetry | 220.52
263.7 K, Liquid, Small (less than 1 g) adiabatic calorimetry | 270.42
264 K, Metastable crystal, Small (less than 1 g) adiabatic calorimetry | 218.39
265.44 K, Liquid, Small (less than 1 g) adiabatic calorimetry | 270.58
265.56 K, Liquid, Small (less than 1 g) adiabatic calorimetry | 271.1
265.73 K, Liquid, Small (less than 1 g) adiabatic calorimetry | 270.91
265.77 K, Crystal, Vacuum adiabatic calorimetry | 223.78
266.29 K, Metastable crystal, Small (less than 1 g) adiabatic calorimetry | 221.46
267.55 K, Liquid, Small (less than 1 g) adiabatic calorimetry | 271.24
267.58 K, Liquid, Small (less than 1 g) adiabatic calorimetry | 271.73
267.75 K, Liquid, Small (less than 1 g) adiabatic calorimetry | 271.67
267.85 K, Crystal, Vacuum adiabatic calorimetry | 227.51
268.56 K, Metastable crystal, Small (less than 1 g) adiabatic calorimetry | 224.85
269.36 K, Crystal, Vacuum adiabatic calorimetry | 231.51
269.61 K, Liquid, Small (less than 1 g) adiabatic calorimetry | 272.26
269.67 K, Liquid, Small (less than 1 g) adiabatic calorimetry | 271.61
269.77 K, Liquid, Small (less than 1 g) adiabatic calorimetry | 272.2
269.93 K, Crystal, Vacuum adiabatic calorimetry | 231.49
